Test results taken from patent US7053120B2, “Use of carboxy compounds such as 2(4-acetoxyphenyl)2-chloro-N-methyl-ethylammonium chloride as anti-inflammatory agents” (priority 1999, dated 2006).
Read-outs that look alike come from different tables or passages of the source.

Key:
[1] = system: IL-6 promoter (p1168hu.IL6P-luc+); type: cell-based, mouse; details: added 2 h before 2000 IU/ml TNF, total 8 h
[2] = system: AP-1 (p1168(κBmut)IL6P-luc+); type: cell-based, mouse; details: 60 nM STS
[3] = system: NF-κB (p1168(AP-1mut)IL6P-luc+); type: cell-based, mouse; details: 2000 IU/ml TNF
[4] = system: NF-κB (p(IL6κB)350hu.IL6P-luc+); type: cell-based, mouse; details: 0.1, 1 or 10 μM CpdA compared with 1 μM DEX, 2000 IU/ml TNF
[5] = system: E-selectin promoter (pE-selectin-Luc); type: cell-based, mouse; details: 2000 IU/ml TNF
[6] = system: GRE-driven promoter (p(GRE)2-50-luc+); type: cell-based, mouse
[7] = system: endogenous murine IL-6 production; assay: Murine IL-6 ELISA on supernatant of TNF-induced L929sA cells; type: cell-based, mouse; details: 1 μM and 10 μM, 2000 IU/ml TNF, 8 h
[8] = system: NF-κB reporter p(IL6-κB)350hu.IL6P-luc+, GR dependence; type: cell-based, human; details: mock DNA versus pSVhGRα, 2000 IU/ml TNF
pNF-κB-Luc = assay: TNF-activated pNF-κB-Luc (E1B TATA) in HEK293T cells; type: cell-based, human; details: 2000 IU/ml TNF
[9] = system: NF-κB DNA-binding activity (IL-6 NF-κB response element); assay: EMSA of NF-κB DNA-binding activity in L929sA cells; type: cell-based, mouse; details: all concentrations indicated, added 2 h before TNF (2000 IU/ml), total 4 h
[10] = system: Gal4-p65 chimeric protein; assay: Gal4-p65 transactivation of p(Gal)2-50hu.IL6P-luc+ in L929sA cells; type: cell-based, mouse
JNK p46 and p54 = assay: MAPK activation assay (phospho-specific Western blot), JNK, L929sA cells; type: cell-based, mouse; details: 2000 IU/ml TNF 15 minutes
[11] = Stability of the compound on storage and in solution; type: physicochemical; details: solid, storage
Excerpt: The invention further relates to compositions, preferably pharmaceutical compositions, comprising as an active ingredient at least one of the compounds as defined in formula (I) together with (pharmaceutically) acceptable excipients. […] The preferred compound exerting this activity is 2(4-acetoxyphenyl)-2-chloro-N-methyl-ethylammonium chloride and has a molecular weight of 264.14.

[12] = kept in solution (especially at pH5 and above); cited from earlier work
oestrus cycle = details: rats; cited from earlier work
[13] = system: NF-κB DNA-binding activity (IL-6 NF-κB response element); details: L929sA cells, previously demonstrated; cited from earlier work

CNCC(Cl)c1ccc(OC(C)=O)cc1.Cl (stereo not shown) [CpdA, 2-(4-acetoxyphenyl)-2-chloro-N-methyl-ethylammonium chloride]
inhibition of TNF induction of p1168hu.IL6P-luc+ (relative luciferase induction factor) ([1]; 0.1 μM): downmodulatory effect
inhibition of TNF induction of p1168hu.IL6P-luc+ (relative luciferase induction factor) ([1]; 1 μM): lowers the relative luciferase induction factor to almost the same extent as 1 μM DEX
inhibition of STS-induced AP-1-mediated transactivation ([2]; 0.1, 1 and 10 μM): capable of inhibiting the STS-induced transactivation
inhibition of TNF-induced NF-κB-mediated transactivation of p1168(AP-1mut)IL6P-luc+ ([3]; 1 μM and 10 μM): capable of significantly inhibiting the TNF-induced promoter activity
inhibition of TNF-activated p(IL6κB)350hu.IL6Pluc+ [4]: inhibits, to a similar extent as DEX
inhibition of TNF-induced pE-selectin-luc+ ([5]; 1 μM): also effective, though to a lesser extent
inhibition of TNF-induced pE-selectin-luc+ ([5]; 10 μM): inhibits the TNF-activated reporter to the same extent as 1 μM DEX, i.e. to background levels
transactivation of p(GRE)2-50-luc+ ([6]; 0.1 and 10 μM, 8 h): lack of activity
effect on DEX-induced p(GRE)2-50-luc+ transactivation ([6]; CpdA together with 1 μM DEX): competition for GR molecules present in the cell
lowering of TNF-induced IL-6 protein levels [7]: able to efficiently lower these TNF-induced levels
repression of TNF-activated p(IL6-κB)350hu.IL6P-luc+ ([8]; 10 μM): only when GR is present
repression of TNF-activated pNF-κB-Luc (pNF-κB-Luc; 10 μM): not able to mediate repression of pNF-κB-Luc
effect on NF-κB DNA-binding activity [9]: no change of NF-κB DNA-binding activity is observed
inhibition of the activity of Gal4p65 ([10]; 10 μM): able to halfmaximally inhibit the activity of Gal4p65
effect on amount of phosphorylated (activated) JNK (JNK p46 and p54; 1 or 10 μM for 2 h): does not affect the amount of activated JNK p46 and p54
hygroscopicity and light sensitivity [11]: hygroscopic and sensitive to light
stability in solution [12]: starts to cyclise to the corresponding aziridine
effect on oestrus cycle (oestrus cycle): disrupts the oestrus cycle of rats

C[C@@H]1C[C@H]2[C@@H]3CCC4=CC(=O)C=C[C@]4(C)[C@@]3(F)[C@@H](O)C[C@]2(C)[C@@]1(O)C(=O)CO [DEX, Dexamethasone, reference compound]
inhibition of TNF induction of p1168hu.IL6P-luc+ (relative luciferase induction factor) ([1]; 1 μM): efficiently be inhibited
inhibition of STS-induced AP-1-mediated transactivation ([2]; 1 μM): efficiently inhibits the AP-1-mediated transactivation
inhibition of TNF-induced NF-κB-mediated transactivation of p1168(AP-1mut)IL6P-luc+ ([3]; 1 μM): efficiently inhibit this NF-κB-mediated transactivation
inhibition of TNF-induced pE-selectin-luc+ ([5]; 1 μM): to background levels
transactivation of p(GRE)2-50-luc+ (induction factor) ([6]; 1 μM, 8 h): at least 8 fold
repression of TNF-activated p(IL6-κB)350hu.IL6P-luc+ ([8]; 1 μM): only when GR is present
repression of TNF-activated pNF-κB-Luc (pNF-κB-Luc; 1 μM): not able to mediate repression of pNF-κB-Luc
inhibition of the activity of Gal4p65 ([10]; 1 μM): able to halfmaximally inhibit the activity of Gal4p65
effect on amount of phosphorylated (activated) JNK (JNK p46 and p54; 1 μM for 2 h): able to inhibit the amount of phosphorylated JNK
effect on NF-κB DNA-binding capacities [13]: without affecting the DNA-binding capacities of NF-κB
